Target: human PDHK2 (hPDHK2) (Homo sapiens (Human), UniProt Q15119)
Test: Inhibitory action of PDHK2 activity (PDH/hPDHK2 complex, residual PDH activity by NADH absorbance at 340 nm)
Format: biochemical
Settings: FLAG-tagged recombinant hPDHK2 with porcine heart PDH complex; PDHK reaction 45 min at room temperature
Protocol: In the case of human PDHK2 (hPDHK2, NCBI Reference Database Accession number NM_002611.4), modified hPDHK2 cDNA wherein FLAG-Tag sequence was added to the N terminal of hPDHK2 cDNA clone (pReceiver-M01/PDK2-GeneCopoeia) as the base was prepared by polymerase chain reaction (PCR) and ligated to the NdeI/EcoRI site of pET-17b vector (Merck KGaA, Catalog Number 69663-3). The recombinant construct was transformed into Escherichia coli DH5a. The recombinant clones were identified, and plasmid DNA was isolated and subjected to the DNA sequence analysis. One clone which had the expected nucleic acid sequence was selected for expression work.
For expression of hPDHK2 activity, Escherichia coli strain BL21(DE3) cells (Merck KGaA, Catalog Number 69450-4) were transformed with the pET17b vector containing modified hPDHK2 cDNA. The Escherichia coli were grown to an optical density 0.6 ([…]) at 30° C. Protein expression was induced by the addition of 500 μmol/L isopropyl-β-thiogalactopyranoside. The Escherichia coli were cultured at 20° C. for 17 to for 18 hr and harvested by centrifugation. The harvested Escherichia coli was resuspended in a suspension buffer (20 mmol/L HEPES-NaOH, 500 mmol/L sodium chloride, 1% ethylene glycol, 0.1% Pluronic (registered trademark) F-68 (pH 8.0), cOmplete, EDTA-free (Roche) (pH 8.0)), and disrupted by a microfluidizer M-110H (MIZUHO INDUSTRIAL CO., LTD.). The precipitate was removed by centrifugation and the supernatant was added to DDDDK-tagged Protein PURIFICATION GEL (MEDICAL & BIOLOGICAL LABORATORIES CO., LTD., Code No. 3329). DDDDK-tagged Protein PURIFICATION GEL was washed with a washing buffer (20 mmol/L HEPES-NaOH, 500 mmol/L sodium chloride, 1% ethylene glycol, 0.1% Pluronic F-68 (pH 8.0)) and the bound protein was eluted with elution buffer 1 (20 mmol/L HEPES-NaOH, 100 μg/mL peptide (amino acid sequence DYKDDDDK) (SEQ ID NO: 1), 500 mmol/L sodium chloride, 1% ethylene glycol, 0.1% Pluronic F-68 (pH 8.0)). The eluted fractions containing FLAG-Tagged protein were pooled, concentrated by an ultrafiltration method, added to a gel filtration column (HiLoad 26/60 Superdex 200 (GE Healthcare Life Sciences, Code No. 17-1070-01)), and eluted with elution buffer 2 (20 mmol/L HEPES-NaOH, 150 mmol/L sodium chloride, 0.5 mmol/L ethylenediaminetetraacetic acid (EDTA), 1% ethylene glycol, 0.1% Pluronic F-68 (pH 8.0)). The eluted fractions were pooled and preserved at −80° C.
PDH (porcine heart PDH complex, Sigma P7032) and 0.5 μg/mL hPDHK2 were mixed in an assay buffer (50 mmol/L 3-morpholinopropanesulfonic acid (pH 7.0), 20 mmol/L dipotassium hydrogen phosphate, 60 mmol/L potassium chloride, 2 mmol/L magnesium chloride, 0.4 mmol/L EDTA, 0.2% poloxamer, 2 mmol/L dithiothreitol) so that the final concentration of PDH was 0.025 U/mL, and the mixture was incubated at 4° C. overnight to obtain a PDH/hPDHK2 complex solution.
PDH was mixed with the assay buffer so that the final concentration was 0.025 U/mL, and the mixture was incubated at 4° C. overnight to prepare a PDH solution.
The test compounds were diluted with DMSO. […] DMSO (1.5 μL) was added to control wells instead of test compound. In addition, DMSO (1.5 μL) was added to blank wells instead of the test compound, and PDH solution was added instead of the PDH/hPDHK2 complex solution. To measure an inhibitory action of the test compound on the PDHK activity inherent in the PDH solution, a test compound was added and the PDH solution instead of the PDH/hPDHK2 complex solution was added to a blank+test compound well.
Then, 10 μL of substrates (5 mmol/L sodium pyruvate, 5 mmol/L Coenzyme A, 12 mmol/L NAD, 5 mmol/L thiamine pyrophosphate, diluted with assay buffer) were added. The mixture was incubated at room temperature for 90 min, and the residual PDH activity was measured.
The absorbance of each well at 340 nm was measured using a microplate reader to detect NADH produced by the PDH reaction. […]

SMILES | IC50
C[C@H]1Cn2c(nnc2C2(F)CC2)-c2onc([C@@](C)(O)C(F)(F)F)c21 [Example 8] | 11.7 nM
C[C@H]1Cc2c(cnn2C2CC(C#N)C2)-c2onc([C@@](C)(O)C(F)(F)F)c21 (stereo in doubt) [Example 26] | 18.2 nM
C[C@H]1Cn2nc(C34CCC(CO)(C3)C4)cc2-c2cnc([C@@](C)(O)C(F)(F)F)n21 [Example 92] | 31.9 nM
C[C@H]1Cn2nc(C3CCOCC3)cc2-c2onc([C@@](C)(O)C(F)(F)F)c21 [Example 61, (R)-1,1,1-trifluoro-2-((R)-4-methyl-8-(tetrahydro-2H-pyran-4-yl)-4,5-dihydroisoxazolo[5,4-c]pyrazolo[1,5-a]pyridin-3-yl)propan-2-ol] | 9.8 nM
C[C@H]1Cn2nc(O[C@H]3CCOC3)cc2-c2onc([C@@](C)(O)C(F)(F)F)c21 (racemic) [Example 36] | 14 nM
C[C@H]1Cn2nc(C3CCOCC3)cc2-c2onc([C@@](C)(O)C(F)(F)F)c21 (racemic) [Example 52] | 15 nM
C[C@H]1Cc2nn(C3CC3)cc2-c2onc([C@@](C)(O)C(F)(F)F)c21 [Example 19] | 13.8 nM
C[C@H]1Cc2[nH]ncc2-c2onc([C@@](C)(O)C(F)(F)F)c21 (racemic) [Example 20] | 22.6 nM
COC(=O)C12CC(c3nnc4n3C[C@H](C)c3c([C@@](C)(O)C(F)(F)F)noc3-4)(C1)C2 [Example 10] | 9.4 nM
C[C@H]1Cn2nc(O[C@H]3CC[C@](C)(O)CC3)cc2-c2onc([C@@](C)(O)C(F)(F)F)c21 [Example 65, (1R,4r)-1-methyl-4-(((R)-4-methyl-3-((R)-1,1,1-trifluoro-2-hydroxypropan-2-yl)-4,5-dihydroisoxazolo[5,4-c]pyrazolo[1,5-a]pyridin-8-yl)oxy)cyclohexan-1-ol] | 6.6 nM
C[C@H]1Cn2nc(N3CCOCC3)cc2-c2cnc([C@@](C)(O)C(F)(F)F)n21 [Example 74] | 18.4 nM
C[C@H]1Cn2nc(OC3CCOCC3)cc2-c2onc([C@@](C)(O)C(F)(F)F)c21 (racemic) [Example 35] | 17.8 nM
C[C@H]1Cn2nc(C3(F)CC3)cc2-c2cnnc([C@@](C)(O)C(F)(F)F)c21 (racemic) [Example 101, (R)-1,1,1-trifluoro-2-[(R)-9-(1-fluorocyclopropyl)-5-methyl-5,6-dihydropyrazolo[1′,5′:1,2]pyrido[3,4-d]pyridazin-4-yl]propan-2-ol and (S)-1,1,1-trifluoro-2-[(S)-9-(1-fluorocyclopropyl)-5-methyl-5,6-dihydropyrazolo[1′,5′:1,2]pyrido[3,4-d]pyridazin-4-yl]propan-2-ol] | 29.2 nM
C[C@H]1Cn2nc(O[C@H]3C[C@@](C)(C#N)C3)cc2-c2onc([C@@](C)(O)C(F)(F)F)c21 (racemic) [Example 48] | 18.1 nM

Results, then the molecule that gave them:

IC50 | SMILES
23.6 nM | C[C@H]1Cc2c(cnn2C2CC(C#N)C2)-c2onc([C@@](C)(O)C(F)(F)F)c21 (stereo in doubt) [Example 29]
37.7 nM | C[C@H]1Cn2nc(OCC34CCC(C#N)(CC3)CC4)cc2-c2cnc([C@@](C)(O)C(F)(F)F)n21 [Example 89]
8.8 nM | C[C@H]1Cc2c(cnn2[C@H]2C[C@](C)(C#N)C2)-c2onc([C@@](C)(O)C(F)(F)F)c21 (racemic) [Example 53, (1S,3r)-1-methyl-3-((S)-4-methyl-3-((R)-1,1,1-trifluoro-2-hydroxypropan-2-yl)-4,5-dihydro-6H-isoxazolo[5,4-e]indazol-6-yl)cyclobutane-1-carbonitrile and enantiomer thereof]
6.6 nM | C[C@H]1Cn2nc(C34CCC(C#N)(CC3)CC4)cc2-c2cnc([C@@](C)(O)C(F)(F)F)n21 [Example 71, 4-((S)-5-methyl-3-((R)-1,1,1-trifluoro-2-hydroxypropan-2-yl)-5,6-dihydroimidazo[1,5-a]pyrazolo[5,1-c]pyrazin-9-yl)bicyclo[2.2.2]octane-1-carbonitrile]
33.4 nM | C[C@H]1Cn2nc(C34CCC(C#N)(CC3)CO4)cc2-c2cnc([C@@](C)(O)C(F)(F)F)n21 [Example 93, 1-((S)-5-methyl-3-((R)-1,1,1-trifluoro-2-hydroxypropan-2-yl)-5,6-dihydroimidazo[1,5-a]pyrazolo[5,1-c]pyrazin-9-yl)-2-oxabicyclo[2.2.2]octane-4-carbonitrile]
6 nM | C[C@H]1Cn2c(nnc2C23CCC(C(C)(C)O)(CC2)CC3)-c2onc([C@@](C)(O)C(F)(F)F)c21 [Example 12]
> 100 nM | COC(=O)C12CCC(c3cc4n(n3)C[C@H](C)c3c-4cnnc3[C@@](C)(O)C(F)(F)F)(CC1)CC2 (racemic) [Example 102, methyl 4-[(R)-5-methyl-4-((R)-1,1,1-trifluoro-2-hydroxypropan-2-yl)-5,6-dihydropyrazolo[1′,5′:1,2]pyrido[3,4-d]pyridazin-9-yl]bicyclo[2.2.2]octane-1-carboxylate and methyl 4-[(S)-5-methyl-4-((S)-1,1,1-trifluoro-2-hydroxypropan-2-yl)-5,6-dihydropyrazolo[1′,5′:1,2]pyrido[3,4-d]pyridazin-9-yl]bicyclo[2.2.2]octane-1-carboxylate]
29.8 nM | C[C@H]1Cn2nc(N3C[C@@H]4C[C@H]3CO4)cc2-c2cnc([C@@](C)(O)C(F)(F)F)n21 [Example 81]
7.2 nM | C[C@H]1Cc2nn([C@H]3C[C@](C)(C#N)C3)cc2-c2onc([C@@](C)(O)C(F)(F)F)c21 (racemic) [Example 54, (1S,3r)-1-methyl-3-((S)-4-methyl-3-((R)-1,1,1-trifluoro-2-hydroxypropan-2-yl)-4,5-dihydro-7H-isoxazolo[5,4-e]indazol-7-yl)cyclobutane-1-carbonitrile and enantiomer thereof]
18.6 nM | C[C@H]1Cn2nc(N3CC4CC3C4)cc2-c2cnc([C@@](C)(O)C(F)(F)F)n21 [Example 83]
15.9 nM | C[C@H]1Cn2nc(OCC3COC3)cc2-c2onc([C@@](C)(O)C(F)(F)F)c21 (racemic) [Example 46]
19.2 nM | C[C@H]1Cn2nc(OCC#N)cc2-c2onc([C@@](C)(O)C(F)(F)F)c21 (racemic) [Example 42]
43.4 nM | C[C@H]1Cn2nc(N3C[C@H]4COC[C@H]4C3)cc2-c2cnc([C@@](C)(O)C(F)(F)F)n21 [Example 80]
14.4 nM | C[C@H]1Cc2c(cnn2CC(C)(C)O)-c2onc([C@@](C)(O)C(F)(F)F)c21 (racemic) [Example 39]
20.1 nM | C[C@H]1Cc2nn(CCC#N)cc2-c2onc([C@@](C)(O)C(F)(F)F)c21 (racemic) [Example 32]
15.2 nM | COCCOc1cc2n(n1)C[C@H](C)n1c-2cnc1[C@@](C)(O)C(F)(F)F [Example 68]
19.2 nM | C[C@H]1Cn2c(nnc2C2(C(F)(F)F)CC2)-c2onc([C@@](C)(O)C(F)(F)F)c21 [Example 2]
12.3 nM | C[C@H]1Cn2nc(C34CC(C#N)(C3)C4)cc2-c2cnc([C@@](C)(O)C(F)(F)F)n21 [Example 72]
14.5 nM | C[C@H]1Cn2nc(C34CC(C(C)(C)O)(C3)C4)cc2-c2cnc([C@@](C)(O)C(F)(F)F)n21 [Example 76]

Same assay, conditions: at 100.0 nM, given when the IC50 value could not be calculated; read-out: hPDHK2 inhibitory rate

SMILES | inhibition at 0.1 µM
COC(=O)C12CCC(c3cc4n(n3)C[C@H](C)c3c-4cnnc3[C@@](C)(O)C(F)(F)F)(CC1)CC2 (racemic) [Example 102, methyl 4-[(R)-5-methyl-4-((R)-1,1,1-trifluoro-2-hydroxypropan-2-yl)-5,6-dihydropyrazolo[1′,5′:1,2]pyrido[3,4-d]pyridazin-9-yl]bicyclo[2.2.2]octane-1-carboxylate and methyl 4-[(S)-5-methyl-4-((S)-1,1,1-trifluoro-2-hydroxypropan-2-yl)-5,6-dihydropyrazolo[1′,5′:1,2]pyrido[3,4-d]pyridazin-9-yl]bicyclo[2.2.2]octane-1-carboxylate] | 3%
